From patent publication US20130158267A1, “METHOD OF SYNTHESIZING THE COMPLEX [ZN(NNS)2] ACTIVE AGAINST THE MALARIA PARASITE PLASMODIUM” (priority 2010, published 2013)

System: chloroquine resistant strain (W2)
Test: activity against chloroquine resistant strain of the malaria parasite
Type: cell-based, Plasmodium falciparum
Settings: compared with control drug
From the text: 3-[1-(2-pyridyl)ethylidene]hydrazinecarbodithioate have moderate potency against falcipain-2 (FP-2) and falcipain-3 (FP-3) cysteine protease enzymes from the malaria parasite plasmodium falciparum while they portray enormous potency against the chloroquine resistant strain (W2) of the parasite. This patent describes the synthesis, characterization and biological results of metal complexes containing deprotonated 3-[1-(2-pyridyl) ethylidene] hydrazinecarbodithioate ligand (FIG. 1). The metal complex were synthesized and recrystallized. The biological activities (nanomolar) of the metal complex against malaria parasites were tested and tabled as table 2 in FIG. 6 of the drawings. The metal potency was far much greater than the control drug with respect to W-2 . This observation is extremely important as malaria resistance against the chloroquine drug is a great challenge today. This metal complex may act as lead compounds for developing future malaria drugs . […] The potency of cadmium is greatest with respect to W-2 compared to other metals as well as the control drug. The metal complex ZnL(LH)Cl containing the deprotonated dithioester L- have been synthesized and charachterized by elemental analysis, mass spectrometry, proton NMR and Fourier transform IR. The ligand LH undergoes tautomerism which can readily get ionized to generate a deprotonated ligand L-. […]

## [Cd] [cadmium]
  potency against W-2 in words / activity sequence versus control: greatest
